In publication PMC7896091, “Synthesis of novel phytol-derived γ-butyrolactones and evaluation of their biological activity” (Scientific Reports, 2021):

Legend:
[1] = test system: MV4-11 cells; assay: Antiproliferative activity, MTT assay; format: cell-based, human
Protocol: (§1) Human biphenotypic B myelomonocytic leukemia MV4-11, human colon cancer LoVo cell line and normal mouse fibroblast BALB/3T3 cells were obtained from American Type Culture Collection (Rockville, Maryland, USA), human lung carcinoma A549 cells were obtained from European Collection of Authenticated Cell Cultures (UK). All the cell lines are being maintained at the Hirszfeld Institute of Immunology and Experimental Therapy, PAS, Wroclaw, Poland and were cultured according the procedure described before.
(§2) Cell lines were cultured according to the protocol described before. MV4-11 cells were cultured in RPMI 1640 medium (Gibco, UK) with 1.0 mM sodium pyruvate, and 10% fetal bovine serum (FBS) (all from Sigma-Aldrich, Germany). A549, LoVo and LoVo/DX cells were cultured in RPMI 1640 + Opti-MEM (1:1) (both from Gibco, UK) supplemented with 5% fetal bovine serum, 1.0 mM sodium pyruvate (LoVo and LoVo/DX cells) (all from Sigma Aldrich Germany) and 0.1 μg/mL doxorubicin chloride (Accord) (only LoVo/DX cells). BALB/3T3 cells in Dulbecco medium (IIET, Poland) supplemented with 10% fetal bovine serum (Sigma-Aldrich, Germany). All culture media were supplemented with 2 mM L-glutamine (Sigma-Aldrich, Germany), 100 units/mL penicillin, and 100 µg/mL streptomycin (both from Polfa Tarchomin S.A., Poland). All cell lines were grown at 37 °C with 5% CO2 humidified atmosphere.
(§3) The solutions of the compounds (50 mM) were prepared by dissolving the substances in DMSO (Sigma Aldrich, Germany). Then the tested compounds were diluted in culture medium to reach the final concentrations of 625, 125, 25 and 5 μM. Before adding of the tested compounds (24 h prior), the cells were plated in 96-well plates (Sarstedt, Germany) at a density of 1 × 10^4 or 0.5 × 10^4 (A549) cells per well. The assay was performed after 72 h of exposure to 625, 125, 25 and 5 μM of the tested agents. The in vitro cytotoxic effect of all agents was examined using the MTT (MV4-11) or SRB assay, described previously. The results were calculated as an IC50 (inhibitory concentration 50%) the concentration of tested agent, which is cytotoxic for 50% of the cancer cells. Each compound in each concentration was tested in triplicate in a single experiment, which was repeated 3–5 times.

[2] = test system: A549 cells; assay: Antiproliferative activity, SRB assay; format: cell-based, human
Protocol: as §1, §2, §3

[3] = test system: LoVo cells; assay: Antiproliferative activity, SRB assay; format: cell-based, human; settings: for IC50: 72 h exposure, SRB, mean ± SD, n.a = no activity in concentration of 5, 25, 125, 625 μM
Protocol: as §1, §2, §3

[4] = test system: LoVo/DX cells; assay: Antiproliferative activity, SRB assay, doxorubicin resistant subline; format: cell-based, human
Protocol: Cell lines were cultured according to the protocol described before. […] All culture media were supplemented with 2 mM L-glutamine (Sigma-Aldrich, Germany), 100 units/mL penicillin, and 100 µg/mL streptomycin (both from Polfa Tarchomin S.A., Poland). All cell lines were grown at 37 °C with 5% CO2 humidified atmosphere. The solutions of the compounds (50 mM) were prepared by dissolving the substances in DMSO (Sigma Aldrich, Germany). […] The in vitro cytotoxic effect of all agents was examined using the MTT (MV4-11) or SRB assay, described previously. […] Each compound in each concentration was tested in triplicate in a single experiment, which was repeated 3–5 times.

[5] = test system: BALB/3T3 cells; assay: Toxicity towards normal fibroblasts, SRB assay; format: cell-based; settings: normal mouse fibroblasts, 72 h exposure, mean ± SD, n.a = no activity in concentration of 5, 25, 125, 625 μM
Protocol: as §1, §2, §3

[6] = test system: Myzus persicae; assay: Aphid settling (choice test) on treated vs control leaves of Brassica rapa subsp. pekinensis; format: in vivo; settings: 0.1% solution in 70% ethanol, mean (± SD), n = 8, 20 aphids/replicate
Protocol: (§4) The peach potato aphids Myzus persicae (Sulzer) and the Chinese cabbage Brassica rapa subsp. pekinensis (Lour.) Hanelt were reared in laboratory at 20 °C, 65% r.h., and L16:8D photoperiod. One to seven days old apterous females of M. persicae and 3-week old plants with 4–5 fully developed leaves were used for experiments. M. persicae were obtained from the laboratory culture maintained at the Department of Botany and Ecology for many generations since 2000. All experiments were carried out under the same conditions of temperature, relative humidity, and photoperiod. The bioassays were started at 10–11.a.m. Each compound was dissolved in 70% ethanol to obtain the recommended 0.1% solution[40]. All compounds were applied on the adaxial and abaxial leaf surfaces by immersing a leaf in the ethanolic solution of a given compound for 30 s.[20]. Control leaves of similar size were immersed in 70% ethanol that was used as a solvent for the studied compounds. Experiments were performed 1 h after the compounds application to allow the evaporation of the solvent. Every plant and aphid were used only once.
This bioassay allows the study of aphid host preferences under semi-natural conditions. In the present study, aphids were given free choice between control and treated excised leaves that were placed in a Petri dish. Aphids were placed in the dish equidistance from treated and untreated leaves, so that aphids could choose between treated (on one half of a Petri dish) and control leaves (on the other half of the dish). […] Each experiment was replicated 8 times (n = 8 replicates, 20 viviparous apterous females/replicate). Aphids that were moving or not on any of the leaves were not counted.
The data of the choice-test were analyzed using Student’s t-test (STATISTICA 13.1. package). […] If aphids settled mainly on the control leaf (p < 0.05), the compound tested in the respective choice-test was stated a deterrent. From the data thus obtained the relative index of deterrence (DI) was calculated: DI = (C − T/C + T) where C was the number of aphids settled on control leaf, T was the number of aphids settled on the leaf treated with the tested compound. The value of DI ranged between 1 (ideal deterrent) and − 1 (ideal attractant)[41].

[7] = test system: Myzus persicae; assay: EPG monitoring of aphid probing and feeding (no-choice test); format: in vivo; settings: 8-h EPG
Protocol: as §4
Aphid probing and the phloem sap uptake by M. persicae was monitored using the technique of electronic registration of aphid probing in plant tissues, known as EPG (= Electrical Penetration Graph), that is frequently employed in insect–plant relationship studies considering insects with sucking-piercing mouthparts[42]–[44]. In this experimental set-up, aphid and plant are connected to electrodes and thus made parts of an electric circuit, which is completed when the aphid inserts its stylets into the plant. Weak voltage is supplied in the circuit, and all changing electric properties are recorded as EPG waveforms that can be correlated with aphid activities and stylet position in plant tissues[45],[46]. The parameters describing aphid behaviour during probing and feeding, such as total time of probing, proportion of phloem patterns E1 and E2, number of probes, etc., are good indicators of plant suitability or interference of probing by chemical or physical factors in individual plant tissues[44]–[46]. In the present study, aphids were attached to a golden wire electrode with conductive silver paint (epgsystems. eu) and starved for 1 h prior to the experiment. Probing behaviour of 12 apterous females/studied compound and control was monitored for 8 h continuously with Giga-4 and Giga-8 DC EPG with 1 GΩ of input resistance recording equipment (EPG Systems, Wageningen, The Netherlands). Each aphid was given access to a freshly prepared plant and each aphid/plant combination was used only once. Various behavioural phases were labelled manually using the Stylet + software (www.epgsystems.eu). The following aphid behaviours were distinguished: no penetration (waveform 'np' – aphid stylets outside the plant), pathway phase—penetration of non-phloem tissues (waveforms 'ABC'), phloem phase (salivation into sieve elements, waveform ‘E1’ and ingestion of phloem sap, waveform ‘E2’), and xylem phase (ingestion of xylem sap, waveform 'G'). Waveform ‘G’ occurred rarely irrespective of the treatment. Therefore, in all calculations the xylem phase was added to the pathway phase and termed as probing in non-phloem tissues. The E1/E2 transition patterns were included in E2. Waveform patterns that were not terminated before the end of the experimental period (8 h) were not excluded from the calculations. The parameters derived from EPG recordings were analyzed according to their frequency and duration in configuration related to activities in peripheral and vascular tissues.
All statistical calculations related to data of the no-choice test were performed using StatSoft, Inc. (2014) STATISTICA (data analysis software system), version 12, www.statsoft.com. […]

[8] = test system: caspase-3/7 in MV4-11 cells; assay: Caspase-3/7 activity determination (Ac-DEVD-ACC substrate); format: cell-based, human; settings: MV4-11, 75 µM, 72 h
Protocol: Caspase-3/7 activity determination was performed according to the protocol previously described. The MV4-11 cells were seeded at the density of 1 × 10^5 cells/mL of culture medium on 24-well plates (Sarstedt, Germany) to the final volume of 2 mL. The cells were exposed to the test compounds at concentrations 75 μM or campthothecin (0.05 μg/mL) as a positive control, for 72 h. After 72 h of the incubation, the cells were collected and centrifuged (5 min., 4 °C, 250×g). Cells were suspended in 50 µL of ice-cold lysis buffer (50 mM HEPES, 10% (w/v) sucrose, 150 mM NaCl, 2 mM EDTA, 1% (v/v) Triton X-100, pH 7.3, IIET, Poland) and incubated 30 min. at 4 °C. After the incubation, 40 µL of each sample was transferred to a white, 96-well plate (Corning, USA) containing 160 µL of the reaction buffer (20 mM HEPES, 10% sucrose, 100 mM NaCl, 1 mM EDTA, 10 mM DTT, 0.02% Trition X-100, pH 7.3) (IIET, Wroclaw, Poland) with 9 µM Ac-DEVD-ACC fluorogenic substrate (λex = 360 nm, λem = 460 nm). The fluorescence increase correlated with the caspase-3/7 level was continuously recorded at 37 °C for 120 min using a Biotek Synergy H4 (Biokom, Warsaw, Poland). Compounds were tested in duplicates in single experiment and each experiment was repeated at least three times independently. Results were normalized to the number of cells in each well and are reported as mean relative caspase-3/7 activity compared to untreated control sample ± SD.

[9] = 72 h exposure, SRB, mean ± SD, n.a = no activity in concentration of 5, 25, 125, 625 μM
[10] = 0.1% solution, mean ± SE, n = 12
[11] = activities in non-phloem tissues, mean ± SE, n = 10-12
[12] = activities in sieve elements, mean ± SE, n = 10-12

Structure (SMILES): N.N.[Cl][Pt][Cl] [Cisplatin, reference compound]
- IC50 ([1]; 72 h exposure, MTT, mean ± SD, n.a = no activity in concentration of 5, 25, 125, 625 μM): 2.88 ± 0.83 µM
- Selectivity index SI, MV4-11 ([1]; SI = IC50 BALB/3T3 / IC50 MV4-11): 1.54
- IC50 [2, 9]: 3.97 ± 1.08 µM
- Selectivity index SI, A549 ([2]; SI = IC50 BALB/3T3 / IC50 A549): 1.12
- IC50 [3]: 5.55 ± 0.12 µM
- Selectivity index SI, LoVo ([3]; SI = IC50 BALB/3T3 / IC50 LoVo): 0.80
- IC50 [4, 9]: 3.45 ± 1.01 µM
- IR (index of resistance) ([4]; IR = IC50 against resistant LoVo/DX / IC50 against non-resistant LoVo, 0 < IR < 2 able to overcome drug resistance): 0.62
- Selectivity index SI, LoVo/DX ([4]; SI = IC50 BALB/3T3 / IC50 LoVo/DX): 1.29
- IC50 [5]: 4.44 ± 2.36 µM

Structure (SMILES): COc1cccc2c1C(=O)c1c(O)c3c(c(O)c1C2=O)C[C@@](O)(C(=O)CO)C[C@@H]3O[C@H]1C[C@H](N)[C@H](O)[C@H](C)O1 [Doxorubicin]
- IC50 ([3]; Homo sapiens, LoVo): 0.12 ± 0.01 µM

Structure (SMILES): C=CC(C)(CCCC(C)CCCC(C)CCCC(C)C)CC(=O)OCC (stereo not shown) [compound 2, ethyl 3,7,11,15-tetramethyl-3-vinylhexadecanoate]
- Mean number of aphids settled on treated (test) leaf ([6]; 1 h after access): 10.8 (± 1.7)
- Mean number of aphids settled on treated (test) leaf ([6]; 2 h after access): 8.9 (± 0.9)
- Mean number of aphids settled on treated (test) leaf ([6]; 24 h after access): 9.6 (± 1.6)
- Mean duration of probing (C + G + E) [7, 10]: 1.4 ± 0.6 h
- Number of probes [7, 10]: 17.6 ± 4.1
- Total duration of pathway (C) [7, 10]: 4.7 ± 0.8 h
- Total duration of phloem phase (E) [7, 10]: 2.4 ± 0.8 h
- Total duration of probing (C + G + E) [7, 10]: 7.3 ± 0.2 h
- Number of probes before first phloem phase [7, 11]: 14.9 ± 4.1
- Time from first probe to first phloem phase [7, 11]: 2.9 ± 0.8 h
- Duration of first phloem phase [7, 12]: 2.0 ± 0.8 h
- Total duration of phloem salivation E1 [7, 12]: 2.4 ± 1.2 min
- Total duration of phloem sap ingestion E2 [7, 12]: 2.4 ± 0.8 h
- Number of probes < 3 min ([7]; before first phloem phase, mean ± SE, n = 10-12): 9.1 ± 2.7
- Proportion of salivation in phloem phase ([7]; (duration of E1 / duration of E1 + E2)*100): 7.9%
- Proportion of phloem phase in total probing ([7]; index = duration of phloem phase E / duration of probing C + G + E): 32.0%
- Increase of caspase-3/7 activity compared to the control [8]: about 1.5 times
